Assay [1] deals with T1, Subtilisin-like protease 1 (Plasmodium falciparum) (UniProt O61142).
T1 sequence (whole entry): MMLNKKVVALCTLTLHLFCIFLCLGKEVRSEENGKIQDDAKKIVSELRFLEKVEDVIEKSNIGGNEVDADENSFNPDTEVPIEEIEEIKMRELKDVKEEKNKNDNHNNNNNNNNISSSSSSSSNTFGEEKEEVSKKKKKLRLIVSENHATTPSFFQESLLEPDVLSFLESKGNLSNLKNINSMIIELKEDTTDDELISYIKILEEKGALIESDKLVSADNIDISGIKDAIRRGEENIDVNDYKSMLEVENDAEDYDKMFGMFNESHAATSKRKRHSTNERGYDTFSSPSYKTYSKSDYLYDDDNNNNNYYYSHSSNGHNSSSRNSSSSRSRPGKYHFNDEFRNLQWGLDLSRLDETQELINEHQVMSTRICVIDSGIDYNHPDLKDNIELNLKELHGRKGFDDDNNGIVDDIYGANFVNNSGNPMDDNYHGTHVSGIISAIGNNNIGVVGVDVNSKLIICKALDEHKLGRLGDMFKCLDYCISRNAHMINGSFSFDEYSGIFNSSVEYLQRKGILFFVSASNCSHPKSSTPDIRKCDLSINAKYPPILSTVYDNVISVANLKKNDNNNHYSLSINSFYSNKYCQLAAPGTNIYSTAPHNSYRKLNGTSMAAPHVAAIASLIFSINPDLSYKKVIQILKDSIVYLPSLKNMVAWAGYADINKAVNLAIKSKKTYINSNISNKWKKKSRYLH
Put plainly: Inhibition of Plasmodium falciparum serine protease subtilisin-like protease 1 at 100 uM by fluorimetric assay.

The target in assay [2] is T2, Subtilisin-like protease 1 (Plasmodium falciparum, UniProt O61142).
T2 sequence (O61142 whole entry): T1 sequence (whole entry)
Put plainly: Inhibition of Plasmodium falciparum serine protease subtilisin-like protease 1by fluorimetric assay.

Starred links: 1 amine or outer side, 2 acyl side, 3 side chain; linkers in the order of their positions; H or OH if unused. Non-standard residues stand in square brackets, D forms with d. Residues, ends and D or L forms follow the SMILES beside them. *: point of attachment. X1 = C[C@H](N[*:1])C(=O)C(F)(F)C(=O)[*:2]; X2 = C[C@H](N[*:1])C(O)C(F)(F)C(=O)[*:2]; Cbz = O=C(OCc1ccccc1)*; OBn = c1ccc(CO*)cc1; Bn = c1ccc(C*)cc1; βAla = NCCC(=O)O

Data on nine molecules can be found in ChEMBL document CHEMBL3352427, “Rational design of the first difluorostatone-based PfSUB1 inhibitors” (Bioorg Med Chem Lett, 2014).

Broadly, the inhibition is the relative decrease from the control value, in per cent. High values mean a strong effect, low ones a weak effect. The IC50 is the concentration at which inhibition is half-maximal. Higher therefore signals a need for much substance.

Take `CC(=O)N[C@H](C(=O)N[C@@H](C)C(=O)N[C@@H](C)C(=O)C(F)(F)C(=O)NCC(=O)O)[C@@H](C)O`: in assay [1], the inhibition came to 6%.
In turn, `CC[C@H](C)[C@H](NC(C)=O)C(=O)N[C@H](C(=O)N[C@@H](C)C(=O)N[C@@H](C)C(=O)C(F)(F)C(=O)NCC(=O)OCc1ccccc1)[C@@H](C)OCc1ccccc1` (Ac-IT(Bn)A[X1]G-OBn) displayed an inhibition in assay [1] of 59%. Also, in assay [2], the IC50 was determined as 33 µM.
In assay [1], `CC[C@H](C)[C@H](NC(=O)[C@H](CCCCNC(=O)OCc1ccccc1)NC(C)=O)C(=O)N[C@H](C(=O)N[C@@H](C)C(=O)N[C@@H](C)C(=O)C(F)(F)C(=O)NCC(=O)OCc1ccccc1)[C@@H](C)OCc1ccccc1` (Ac-K(Cbz)IT(Bn)A[X1]G-OBn) registered an inhibition of 71%. The molecule further returned an IC50 in assay [2] of 5 µM.
Regarding `CC[C@H](C)[C@H](NC(=O)[C@H](CCCCNC(=O)OCc1ccccc1)NC(C)=O)C(=O)N[C@H](C(=O)N[C@@H](C)C(=O)N[C@@H](C)C(=O)C(F)(F)C(=O)NCCC(=O)OCc1ccccc1)[C@@H](C)OCc1ccccc1` (Ac-K(Cbz)IT(Bn)A[X1][βAla]-OBn), the inhibition in assay [1] came out at 14%.
`CC[C@H](C)[C@H](NC(=O)[C@H](CCCCNC(=O)OCc1ccccc1)NC(C)=O)C(=O)N[C@H](C(=O)N[C@@H](C)C(=O)N[C@@H](C)C(O)C(F)(F)C(=O)NCC(=O)OCc1ccccc1)[C@@H](C)OCc1ccccc1` (some centres undefined) (Ac-K(Cbz)IT(Bn)A[X2]G-OBn): the inhibition in assay [1] came out at 3%.
With `CC[C@H](C)[C@H](NC(C)=O)C(=O)N[C@H](C(=O)N[C@@H](C)C(=O)N[C@@H](C)C(=O)C(F)(F)C(=O)NCC(=O)O)[C@@H](C)O` (HELM PEPTIDE1{[ac].I.T.A.[C[C@H](N[*:1])C(=O)C(F)(F)C(=O)[*:2]].G}$$$$V2.0), the inhibition in assay [1] was found to be 99%. The molecule further came in with an IC50 in assay [2] of 0.6 µM.
In assay [1], `CC[C@H](C)[C@H](NC(=O)[C@H](CCCCN)NC(C)=O)C(=O)N[C@H](C(=O)N[C@@H](C)C(=O)N[C@@H](C)C(=O)C(F)(F)C(=O)NCC(=O)O)[C@@H](C)O` (HELM PEPTIDE1{[ac].K.I.T.A.[C[C@H](N[*:1])C(=O)C(F)(F)C(=O)[*:2]].G}$$$$V2.0) had an inhibition of 100%. In addition, it took 0.6 µM to reach half-maximal inhibition in assay [2] (IC50).
For `CC[C@H](C)[C@H](NC(=O)[C@H](CCCCN)NC(C)=O)C(=O)N[C@H](C(=O)N[C@@H](C)C(=O)N[C@@H](C)C(=O)C(F)(F)C(=O)NCCC(=O)O)[C@@H](C)O` (HELM PEPTIDE1{[ac].K.I.T.A.[C[C@H](N[*:1])C(=O)C(F)(F)C(=O)[*:2]].[bAla]}$$$$V2.0), in assay [1], the inhibition was found to be 63%. Besides, the IC50 in assay [2] stood at 60 µM.
In turn, `CC[C@H](C)[C@H](NC(C)=O)C(=O)N[C@H](C(=O)N[C@@H](C)C(=O)N[C@@H](C)C(O)C(F)(F)C(=O)NCC(=O)OCc1ccccc1)[C@@H](C)OCc1ccccc1` (mixture of isomers) yielded an inhibition in assay [1] of 0%.
